Drawing on ChEMBL document CHEMBL3865798, “Engineering another class of anti-tubercular lead: Hit to lead optimization of an intriguing class of gyrase ATPase inhibitors” (Eur J Med Chem, 2016), this text covers MIC, IC50 and inhibition for 47 compounds.

Each structure is given as a SMILES string. ≈ marks a conversion by molar mass, not a printed value.

Series [1] concerns Mycobacterium tuberculosis. The series can be described thus: microbe, parasite or virus in culture. The note with it: H37Rv, 168 h.
Description: Antimycobacterial activity against Mycobacterium tuberculosis H37Rv after 7 days by microplate alamar blue assay
Series [2] addresses DNA gyrase subunit B (Mycobacterium smegmatis (strain ATCC 700084 / mc(2)155), UniProt A0QNE0).
Description: Inhibition of Mycobacterium smegmatis 155 6His-tagged DNA gyrase B catalytic domain ATPase activity expressed in Escherichia coli BL21 (DE3) pLysS cells assessed as inorganic phosphate release after 120 mins in presence of ATP by malachite green dye based assay
Series [3] can be described thus: Growth inhibition of mouse RAW264.7 cells at 100 uM after 48 hrs by MTT assay. It is filed as cell-based. To be noted: read-out: GI. Background: Formazan colour is commonly taken as a measure of viable cells.

Chain of DNA gyrase subunit B (Mycobacterium smegmatis (strain ATCC 700084 / mc(2)155), UniProt A0QNE0) (A0QNE0 whole entry): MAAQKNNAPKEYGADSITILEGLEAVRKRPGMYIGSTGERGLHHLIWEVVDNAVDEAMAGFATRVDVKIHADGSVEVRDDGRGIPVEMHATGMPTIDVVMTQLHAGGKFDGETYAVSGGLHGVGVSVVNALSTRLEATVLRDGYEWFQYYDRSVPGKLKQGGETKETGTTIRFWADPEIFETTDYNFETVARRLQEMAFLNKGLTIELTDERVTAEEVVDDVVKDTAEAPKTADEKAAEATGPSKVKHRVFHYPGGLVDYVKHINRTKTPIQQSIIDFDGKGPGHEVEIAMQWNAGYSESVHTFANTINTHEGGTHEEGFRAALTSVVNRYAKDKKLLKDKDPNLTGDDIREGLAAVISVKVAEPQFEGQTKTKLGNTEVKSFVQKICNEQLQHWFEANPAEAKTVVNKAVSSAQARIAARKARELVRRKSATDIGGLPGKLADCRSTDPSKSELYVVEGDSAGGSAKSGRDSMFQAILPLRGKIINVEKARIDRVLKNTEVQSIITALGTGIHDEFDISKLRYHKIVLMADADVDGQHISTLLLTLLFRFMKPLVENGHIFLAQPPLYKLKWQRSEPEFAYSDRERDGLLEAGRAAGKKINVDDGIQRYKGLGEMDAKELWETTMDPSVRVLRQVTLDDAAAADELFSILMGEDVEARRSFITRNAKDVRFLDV

In general, IC50 refers to the concentration that inhibits the measured activity by half. Higher therefore signals lower potency. As to `O=[N+]([O-])c1ccc(N2CCN(c3ccnc4cc(Cl)ccc34)CC2)c2nonc12`, the MIC in series [1] was determined as 7.26 µM (≈ 2.98 µg/mL). In series [2], the IC50 stood at 10.3 µM. The inhibition at 48 h, 100 µM in series [3] turned out to be 37.2%.
For `CC(=O)c1ccc(NC(=O)CN2CCN(c3ccnc4cc(Cl)ccc34)CC2)cc1`, in that order: 14.5 µM (≈ 6.13 µg/mL), 7.6 µM and 29.5%.
For `CCNC(=O)N1CCN(c2ccnc3cc(Cl)ccc23)CC1`, in that order: 157 µM (≈ 50 µg/mL), 45.3 µM and 27%.
With `Clc1ccc2c(N3CCN(Cc4ccc[nH]4)CC3)ccnc2c1`, the MIC in series [1] was determined as 76.5 µM (≈ 25 µg/mL). Further, the 50% inhibitory concentration (IC50) in series [2] stood at 16.9 µM. Moreover, the inhibition at 48 h, 100 µM in series [3] stood at 12.6%.
Taken in the same sequence, the figures for `O=C(NCc1ccccc1)N1CCN(c2ccnc3cc(Cl)ccc23)CC1` were 17.7 µM (≈ 6.73 µg/mL), 6.1 µM and 25.2%.
Turning to `CO[C@H]1/C=C/O[C@@]2(C)Oc3c(C)c(O)c4c(O)c(c(/C=N/N5CCN(C)CC5)c(O)c4c3C2=O)NC(=O)/C(C)=C\C=C\[C@H](C)[C@H](O)[C@@H](C)[C@@H](O)[C@@H](C)[C@H](OC(C)=O)[C@@H]1C` [RIFAMPIN], the MIC in series [1] is 0.23 µM (≈ 0.189 µg/mL).
As to `CCNC(=S)N1CCN(c2ccnc3cc(Cl)ccc23)CC1`, the MIC in series [1] was determined as 74.6 µM (≈ 25 µg/mL). The compound also came in with an IC50 in series [2] of 40.6 µM. Also, the inhibition at 48 h, 100 µM in series [3] came to 21.9%.
Taken in the same sequence, the figures for `O=[N+]([O-])c1cnc(N2CCN(c3ccnc4cc(Cl)ccc34)CC2)s1` were 33.2 µM (≈ 12.5 µg/mL), 9.6 µM and 35.1%.
The compound `O=C(CN1CCN(c2ccnc3cc(Cl)ccc23)CC1)Nc1cc(C(F)(F)F)ccc1Cl` had an MIC in series [1] of 24.2 µM (≈ 11.7 µg/mL). In addition, the IC50 in series [2] turned out to be 31.3 µM. The inhibition at 48 h, 100 µM in series [3] is 24.7%.
Taken in the same sequence, the figures for `O=C(CN1CCN(c2ccnc3cc(C(F)(F)F)ccc23)CC1)NCc1ccccn1` were 116 µM (≈ 50 µg/mL), over 75 µM and 51.2%.
Turning to `S=C(Nc1ccc(Cl)cc1)N1CCN(c2ccnc3cc(Cl)ccc23)CC1`, in series [1], the MIC turned out to be 30 µM (≈ 12.5 µg/mL). Also, the IC50 in series [2] came to 10.7 µM. Further, the inhibition at 48 h, 100 µM in series [3] came to 34.2%.
Taken in the same sequence, the figures for `O=C(Nc1ccccc1)N1CCN(c2ccnc3cc(Cl)ccc23)CC1` were 17 µM (≈ 6.25 µg/mL), 7.6 µM and 30.9%.
`S=C(Nc1ccccc1)N1CCN(c2ccnc3cc(Cl)ccc23)CC1` registered an MIC in series [1] of 16.3 µM (≈ 6.25 µg/mL). Further, the midpoint of inhibition in series [2], the IC50, lay at 4.12 µM. Besides, the inhibition at 48 h, 100 µM in series [3] came out at 16.5%.
Taken in the same sequence, the figures for `Cc1ccc(NC(=O)N2CCN(c3ccnc4cc(Cl)ccc34)CC2)cc1` were 32.8 µM (≈ 12.5 µg/mL), 16 µM and 33.9%.
For `O=C(CN1CCN(c2ccnc3ccccc23)CC1)NCc1ccccn1`, in that order: 138 µM (≈ 50 µg/mL), over 75 µM and 23.5%.
Taken in the same sequence, the figures for `O=C(c1cc2cc(Cl)ccc2[nH]1)N1CCN(c2ccnc3cc(Cl)ccc23)CC1` were 14.7 µM (≈ 6.25 µg/mL), 10.3 µM and 29.8%.
The compound `CC(C)NC(=S)N1CCN(c2ccnc3cc(Cl)ccc23)CC1` had an MIC in series [1] of 71.6 µM (≈ 25 µg/mL). In series [2], this compound showed an IC50 of 40.4 µM. Moreover, in series [3], the inhibition at 48 h, 100 µM came out at 36.3%.
In the case of `O=C(CN1CCN(c2ccnc3cc(Cl)ccc23)CC1)NCc1ccccn1`, the MIC in series [1] turned out to be 31.6 µM (≈ 12.5 µg/mL). In series [2], the IC50 was determined as 12.2 µM. Moreover, the inhibition at 48 h, 100 µM in series [3] was 36.4%.
The compound `O=C(CN1CCN(c2ccnc3cc(Cl)ccc23)CC1)NCc1cccs1` registered an MIC in series [1] of 31.2 µM (≈ 12.5 µg/mL). The compound further returned a half-maximal inhibitory concentration (IC50) in series [2] of 14.8 µM. Besides, the inhibition at 48 h, 100 µM in series [3] worked out at 33.4%.
For `CC1COc2c(N3CCN(C)CC3)c(F)cc3c(=O)c(C(=O)O)cn1c23` (stereo not given) [OFLOXACIN], the MIC in series [1] stood at 2.16 µM (≈ 0.781 µg/mL).
Take `O=[N+]([O-])c1ccc(NC(=S)N2CCN(c3ccnc4cc(Cl)ccc34)CC2)cc1`: the MIC in series [1] was found to be 14.3 µM (≈ 6.13 µg/mL). The compound further gave an IC50 in series [2] of 6.8 µM. Besides, the inhibition at 48 h, 100 µM in series [3] was found to be 39.9%.
For `O=C(Nc1ccc(F)cc1)N1CCN(c2ccnc3cc(Cl)ccc23)CC1`, the MIC in series [1] amounted to 15.3 µM (≈ 5.88 µg/mL). The same compound registered an IC50 in series [2] of 3.1 µM. For the same compound, the inhibition at 48 h, 100 µM in series [3] turned out to be 17.6%.
`Cc1ccc(NC(=S)N2CCN(c3ccnc4cc(Cl)ccc34)CC2)cc1` returned an MIC in series [1] of 63 µM (≈ 25 µg/mL). In addition, the midpoint of inhibition in series [2], the IC50, lay at 13.8 µM. For the same compound, in series [3], the inhibition at 48 h, 100 µM amounted to 15.8%.
For `O=C(c1ccccn1)N1CCN(c2ccnc3cc(Cl)ccc23)CC1`, in that order: 35.4 µM (≈ 12.5 µg/mL), 11 µM and 23.6%.
For `O=C(CN1CCN(c2ccnc3cc(Cl)ccc23)CC1)Nc1nc2ccc([N+](=O)[O-])cc2s1`, in that order: 25.8 µM (≈ 12.5 µg/mL), 16.1 µM and 23.6%.
For the compound `S=C(NCc1ccccc1)N1CCN(c2ccnc3cc(Cl)ccc23)CC1`, in series [1], the MIC came out at 15.8 µM (≈ 6.25 µg/mL). The compound also gave an IC50 in series [2] of 5.5 µM. Moreover, the inhibition at 48 h, 100 µM in series [3] came out at 19.8%.
Taken in the same sequence, the figures for `COc1ccc(NC(=S)N2CCN(c3ccnc4cc(Cl)ccc34)CC2)cc1` were 30.3 µM (≈ 12.5 µg/mL), 11 µM and 23.1%.
For `Clc1ccc2c(N3CCN(Cc4nc5ccccc5[nH]4)CC3)ccnc2c1`, the MIC in series [1] is 27.3 µM (≈ 10.3 µg/mL). It took 32.6 µM to reach half-maximal inhibition in series [2] (IC50). Moreover, the inhibition at 48 h, 100 µM in series [3] is 34.8%.
Taken in the same sequence, the figures for `O=C(c1cc2ccccc2[nH]1)N1CCN(c2ccnc3cc(Cl)ccc23)CC1` were 16 µM (≈ 6.25 µg/mL), 8.53 µM and 34.6%.
For `O=C(Nc1ccc([N+](=O)[O-])cc1)N1CCN(c2ccnc3cc(Cl)ccc23)CC1`, in that order: 30.4 µM (≈ 12.5 µg/mL), 9.2 µM and 41.8 to 42%.
For `O=C(CN1CCN(c2ccnc3cc(Cl)ccc23)CC1)Nc1ccccn1`, in that order: 17.7 µM (≈ 6.76 µg/mL), 9.1 µM and 25.4%.
Regarding `COc1ccc2c(N3CCN(CC(=O)NCc4ccccn4)CC3)ccnc2c1`, in series [1], the MIC amounted to 63.9 µM (≈ 25 µg/mL). In addition, 51.6 µM corresponded to half-maximal inhibition in series [2] (IC50). Besides, the inhibition at 48 h, 100 µM in series [3] amounted to 33.5%.
Regarding `COc1ccc2[nH]c(C(=O)N3CCN(c4ccnc5cc(Cl)ccc45)CC3)cc2c1`, in series [1], the MIC stood at 29.7 µM (≈ 12.5 µg/mL). In series [2], this compound yielded a half-maximal inhibitory concentration (IC50) of 24.3 µM. Moreover, the inhibition at 48 h, 100 µM in series [3] amounted to 16.4%.
For `O=C(c1ccc[nH]1)N1CCN(c2ccnc3cc(Cl)ccc23)CC1`, in that order: 18.3 µM (≈ 6.25 µg/mL), 14.2 µM and 34.2%.
In series [1], `O=C(CN1CCN(c2ccnc3cc(Cl)ccc23)CC1)NCc1ccco1` displayed an MIC of 32.5 µM (≈ 12.5 µg/mL). This compound had an IC50 in series [2] of 16.2 µM. The inhibition at 48 h, 100 µM in series [3] stood at 21.1%.
Taken in the same sequence, the figures for `O=C(c1cc2cc(F)ccc2[nH]1)N1CCN(c2ccnc3cc(Cl)ccc23)CC1` were 15.3 µM (≈ 6.25 µg/mL), 13.6 µM and 23.3%.
Turning to `CC(C)NC(=O)N1CCN(c2ccnc3cc(Cl)ccc23)CC1`, the MIC in series [1] is 155 µM (≈ 51.6 µg/mL). The compound also gave an IC50 in series [2] of 43.9 µM. Further, in series [3], the inhibition at 48 h, 100 µM was 34.4%.
Taken in the same sequence, the figures for `CC(=O)c1ccc(NC(=S)N2CCN(c3ccnc4cc(Cl)ccc34)CC2)cc1` were 58.8 µM (≈ 25 µg/mL), 27 µM and 27.2%.
In series [1], `CC(=O)c1ccc(NC(=O)N2CCN(c3ccnc4cc(Cl)ccc34)CC2)cc1` yielded an MIC of 30.6 µM (≈ 12.5 µg/mL). In series [2], half-maximal inhibition (IC50) required 18.8 µM. Further, in series [3], the inhibition at 48 h, 100 µM amounted to 26.2%.
`NNC(=O)c1ccncc1` [ISONIAZID]: the MIC in series [1] worked out at 0.66 µM (≈ 0.0905 µg/mL).
`Clc1ccc2c(N3CCN(Cc4c[nH]c5ccccc45)CC3)ccnc2c1` registered an MIC in series [1] of 16.2 µM (≈ 6.12 µg/mL). Inhibition in series [2] was half-maximal at 8.3 µM (IC50). Besides, the inhibition at 48 h, 100 µM in series [3] was 22.2%.
Compound `O=C(CN1CCN(c2ccnc3cc(Cl)ccc23)CC1)Nc1ncc([N+](=O)[O-])s1` returned an MIC in series [1] of 31.2 µM (≈ 13.5 µg/mL). In series [2], this compound yielded an IC50 of 14.6 µM. Further, the inhibition at 48 h, 100 µM in series [3] turned out to be 11.3%.
Taken in the same sequence, the figures for `O=C(CN1CCN(c2ccnc3cc(Cl)ccc23)CC1)Nc1ccccc1` were 35.5 µM (≈ 13.5 µg/mL), 33.1 µM and 26.2%.
In series [1], `COc1ccc(NC(=O)N2CCN(c3ccnc4cc(Cl)ccc34)CC2)cc1` displayed an MIC of 31.5 µM (≈ 12.5 µg/mL). Inhibition in series [2] was half-maximal at 21.1 µM (IC50). The inhibition at 48 h, 100 µM in series [3] stood at 25.3%.
Taken in the same sequence, the figures for `O=C(Nc1ccc(Cl)cc1)N1CCN(c2ccnc3cc(Cl)ccc23)CC1` were 31.5 µM (≈ 12.6 µg/mL), 9.9 µM and 26.2%.
For `O=C(CN1CCN(c2ccnc3cc(Cl)ccc23)CC1)NCCc1ccccn1`, in that order: 61 µM (≈ 25 µg/mL), 30.4 µM and 26.3%.
For `O=C(CN1CCN(c2ccnc3cc(Cl)ccc23)CC1)NCc1ccccc1`, in that order: 63.3 µM (≈ 25 µg/mL), 23.8 µM and 15.3%.
